Laboratory results as given in patent publication US20250073209A1, “COVALENT TARGETING OF RhoA FOR CANCER THERAPY” (The University of Hong Kong, priority 2023, published 2025).

What was measured:
Cdc42 = Cdc42 (Homo sapiens, UniProt P60953); test: Cdc42-GTP PAK-PBD pull-down in HT29 cells; assay type: cell-based; design: endogenous in cells; host or cells: HT29; conditions: HT29, complete medium 24 h
Text: The procedure is similar to that for RhoA-GTP assay, except that Rac1-GTP and Cdc42-GTP in CRC cells were first enriched by Rac1 Pull-Down Activation Assay Biochem Kit (Cytoskeleton #BK035) instead of using the RhoA kit. The enriched Rac1-GTP and Cdc42-GTP were then immunoblotted by Rac1/2/3 antibody (CST #2465) and Cdc42 antibody (CST #2462) respectively.
GTP loading onto RhoA is critical for the protein activation and mediating downstream signals. In view of the inhibitions of GDP-to-GTP exchange of RhoA by CL16 in vitro as discussed above, effects of CL16 on RhoA biology in colorectal cancer cells were examined. In the serum starvation-re-stimulation experiment, HCT116 cells were grown in serum-free medium with CL16, Rhosin or solvent control for 24 h, followed by stimulation with 10% FBS for 10 min. The cells were then lysed and the RhoA activity was assayed by the level of RhoA-GTP, which is the active form of RhoA. […] HT29 cells were incubated with solvent vehicle, CL16 or Rhosin in complete medium for 24 h. The cells were then washed, lysed and subjected to rhotekin pull-down for blotting RhoA-GTP, or PAK-PBD pull-down for blotting Rac1-GTP and Cdc42-GTP. Confocal fluorescence images from HCT116 and HT29 cells expressing FRET RhoA-biosensor in the serum starvation-restimulation experiment were taken.

[1] = tested on: normal colon fibroblast CCD-18Co cells; test: MTT assay on normal colon fibroblasts; assay type: cell-based, human; conditions: 48 h, compared with CRCs
Description: HCT116 cells was seeded at 2,500 cells/well; HT29, LOVO and SW620 cells were seeded at 4,000 cells/well; CCD-18Co cells were seeded at 10,000/well; and SW480 cells were seeded at 12,000 cells/well in 96 well plate in triplicates. Cells were treated with a concentration gradient of CL16 for 48 hours. Then, cells were incubated with 10% 3-(4,5-Dimethylthiazol-2-yl)-2,5-diphenyltetrazolium bromide (MTT) solution ([…]) in 37° C. for 4 hours. Cells were then lyzed in 10% SDS in […] HCl. Absorbance of individual well was measured at 570 nm. IC50 values were analyzed by nonlinear best-fit regression using Prism Graphpad 9.
As discussed above, overexpression/hyperactivity of RhoA associated with poor prognosis and aggressive behaviors of CRCs (FIG. 8A). Thus, the anti-cancer and anti-metastatic properties of CL16 in CRCs were explored. First, it was confirmed that genetic knockdown of RhoA by siRNA slowed down colony formation and migration of CRCs by using staining (data not shown) and wound healing assay (FIG. 4A). MTT assay was used to determine cell viability of CRCs and normal colon fibroblast CCD-18Co cells treated with CL16 for 48 h (n=3 different biological replicates/group). A much lower expression level of RhoA in normal colon fibroblast CCD-18Co cells was also determined, as compared to CRCs, by western blotting (data not shown). […]

RhoA [2] = test: FRET-RhoA biosensor imaging, serum re-stimulation; assay type: cell-based, human; conditions: transfected cells, serum-free 24 h, 10% FBS 10 min
Description: To further validate the inhibitory effects of CL16 on RhoA, HCT116 and HT29 cells were transfected with a FRET-RhoA biosensor, where cells with elevated RhoA activity would show a higher FRET/mTFP1. Specifically, HCT116 cells transfected with FRET-RhoA biosensor were treated with CL16 or solvent in serum-free medium for 24 h, washed with PBS, re-stimulated with 10% FBS for 10 min, washed, and then imaged in HBSS by confocal fluorescence microscopy. […] In addition, HCT116 cells were serum-starved and treated with CL16 or Rhosin for 24 h, followed by 10% FBS re-stimulation for 10 min. The cells were then washed and fixed by 4% paraformaldehyde, washed with PBS and stained with Alexa Fluor 488-Phalloidin in PBS (1:20, v/v) at room temperature for 15 min. The cells were washed with PBS, incubated with Hoechst (8.2 μM) in PBS for 15 min, washed and then imaged in PBS by confocal fluorescence microscopy. […] Since RhoA regulates cytoskeletal dynamics and RhoA activation can induce the formation of contractile F-actin, the reduction of F-actin fibers by CL16 treatment supports its inhibitory roles on RhoA signaling.

SW620 xenograft = test: Mouse SW620 xenograft model; assay type: in vivo
Description: FIG. 7A is a graph showing inhibition of tumor growth by CL16 in mouse HCT116 xenografts through intraperitoneal injection at 10 mg/kg (n=6 per group). FIG. 7B is a graph showing inhibition of tumor growth by CL16 in mouse HT29 xenografts through intraperitoneal injection at 10 mg/kg (n=7). FIG. 7C is a graph showing the body weight of mice with HT29 xenografts throughout the treatment with CL16. FIG. 7D is a graph showing inhibition of tumor growth by CL16 in mouse SW620 xenografts through intraperitoneal injection at 10 mg/kg (n=6 per group). FIG. 7E is a bar graph showing the tumor weight of harvested tumors from the treated mice with SW620 xenografts. FIG. 7F is a graph showing the body weight of mice with SW620 xenografts throughout the treatment with CL16. Statistical analysis using a two-tailed Student's t-test. *P<0.05.
7-week-old mice with weight around 20 g were inoculated subcutaneously with HCT116 (2×10^6 cells per mouse) or HT29 (3×10^6 cells per mouse) cells, in serum-free RMPI or Matrigel in PBS respectively. […] The tumor volume and body weight of the nude mice were measured throughout the treatment. The tumor volume was calculated by the equation: Volume (mm^3)=1×w^2/2, where 1 and w were the length and width of the tumor. At the end of the treatment, the mice were sacrificed and the tumor weight was measured. […]

RhoA [3] = biological target: RhoA (Homo sapiens, UniProt P61586); test: Fluorescence-based assay of Dbs-mediated GTP binding onto RhoA; assay type: biochemical; conditions: increasing concentrations of CL16
RhoA (Homo sapiens, UniProt P61586), sequence (P61586 whole entry): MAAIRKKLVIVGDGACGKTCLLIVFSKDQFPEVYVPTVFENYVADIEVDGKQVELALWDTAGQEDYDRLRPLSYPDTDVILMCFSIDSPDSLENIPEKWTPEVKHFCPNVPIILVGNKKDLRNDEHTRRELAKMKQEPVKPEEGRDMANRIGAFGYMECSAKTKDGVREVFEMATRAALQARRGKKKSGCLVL

Cdc42, sequence (P60953 whole entry): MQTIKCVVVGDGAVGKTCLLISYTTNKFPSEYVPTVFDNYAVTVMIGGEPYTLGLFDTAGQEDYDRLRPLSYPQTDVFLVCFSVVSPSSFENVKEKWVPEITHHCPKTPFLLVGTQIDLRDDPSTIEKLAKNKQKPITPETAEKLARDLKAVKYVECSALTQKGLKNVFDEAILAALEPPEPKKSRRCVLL

Cdc42 activity (Cdc42-GTP) (Cdc42): no significant changes
kinetics of Dbs-mediated GTP binding onto RhoA (RhoA [3]): significant decrease in the kinetics
SMILES: O=C(CCl)N1N=C(c2cc3ccccc3o2)CC1c1ccco1 (stereo not drawn) [CL16]
toxicity in normal cells (cell viability) [1]: much less toxic
FRET/mTFP1 upon serum re-stimulation (RhoA [2]): abolishment of the increase in FRET/mTFP1
body weight, treated vs untreated (SW620 xenograft; SW620 xenografts, FIG. 7F): no observable difference
tumor growth vs vehicle control (SW620 xenograft; nude mice, 10 mg/kg intraperitoneal): significantly inhibited tumor growth
